Test system: S. cerevisiae single-deletion yeast strains
Test: High-throughput 96-well screen of AF sensitivity of single-gene knockouts (CFU at start and after 8 hours)
Format: cell-based
Method: To identify genes critical to AF action, the AF sensitivity of single-gene knockouts identified through the common transcriptional analysis were identified. In the first pass-through, 56 testable genes were identified. This set was later expanded to include targets identified through phenotypic analysis and metabolomic profiling, for a total of 84 target genes (Table 2). The initial 56 targets were tested using a rapid high-throughput 96-well assay with AMB and MCZ to identify single-gene knockouts with elevated resistance to AFs (Table 2). Knockouts that were more resistant to at least one of the AFs were tested individually using the 24-well colony forming (CF) assay. Target genes selected after the initial 56 strains were assayed individually using the 24-well CF assay.
The first 56 S. cerevisiae strains were acquired from the deletion library and stored in 96-well plates in replicates of three. To start the assay, the plates were defrosted and 10 μl of stored cells were inoculated into 100 μl of fresh synthetic dextrose complete (SDC) media for 16 hours. These overnight cultures were diluted into a fresh 96-well plate with 100 μl of SDC to achieve an OD600 of approximately 0.2. Colony forming units (CFU) in each well were measured at the start of the assay and after 8 hours of incubation. The AF susceptibility of each strain was compared to that of wildtype. Strains with significant susceptibility differences from wildtype were assayed in 0.5 ml of SDC media using the 24-well plate CF assay described above.

## C[C@@H]1[C@H](O)[C@@H](C)/C=C/C=C/C=C/C=C/C=C/C=C/C=C/[C@H](O[C@@H]2O[C@H](C)[C@@H](O)[C@H](N)[C@@H]2O)C[C@@H]2O[C@](O)(C[C@@H](O)C[C@@H](O)[C@H](O)CC[C@@H](O)C[C@@H](O)CC(=O)O[C@H]1C)C[C@H](O)[C@H]2C(=O)O [AMB, amphotericin B]
S. cerevisiae PAB102, HSP104 deletion
  96 Well Screen, AF susceptibility vs wildtype: Resistant (″Resistant″ or ″Sensitive″ indicate at least a 5-fold CFU difference from wildtype at the final time point)
S. cerevisiae PAB103, SDH2 deletion
  96 Well Screen, AF susceptibility vs wildtype: Resistant (″Resistant″ or ″Sensitive″ indicate at least a 5-fold CFU difference from wildtype at the final time point)
S. cerevisiae PAB104, FRE8 deletion
  96 Well Screen, AF susceptibility vs wildtype: Resistant (″Resistant″ or ″Sensitive″ indicate at least a 5-fold CFU difference from wildtype at the final time point)
S. cerevisiae PAB105, CHA4 deletion
  96 Well Screen, AF susceptibility vs wildtype: Resistant (″Resistant″ or ″Sensitive″ indicate at least a 5-fold CFU difference from wildtype at the final time point)
S. cerevisiae PAB106, FMS1 deletion
  96 Well Screen, AF susceptibility vs wildtype: Resistant (″Resistant″ or ″Sensitive″ indicate at least a 5-fold CFU difference from wildtype at the final time point)
S. cerevisiae PAB107, NDE1 deletion
  96 Well Screen, AF susceptibility vs wildtype: Resistant (″Resistant″ or ″Sensitive″ indicate at least a 5-fold CFU difference from wildtype at the final time point)
S. cerevisiae PAB108, ALD3 deletion
  96 Well Screen, AF susceptibility vs wildtype: Resistant (″Resistant″ or ″Sensitive″ indicate at least a 5-fold CFU difference from wildtype at the final time point)
S. cerevisiae PAB109, GAD1 deletion
  96 Well Screen, AF susceptibility vs wildtype: Normal
S. cerevisiae PAB110, PGM3 deletion
  96 Well Screen, AF susceptibility vs wildtype: Normal
S. cerevisiae PAB111, PYK2 deletion
  96 Well Screen, AF susceptibility vs wildtype: Resistant (″Resistant″ or ″Sensitive″ indicate at least a 5-fold CFU difference from wildtype at the final time point)
S. cerevisiae PAB112, MNE1 deletion
  96 Well Screen, AF susceptibility vs wildtype: Normal
S. cerevisiae PAB113, FUM1 deletion
  96 Well Screen, AF susceptibility vs wildtype: Normal
S. cerevisiae PAB114, TPK2 deletion
  96 Well Screen, AF susceptibility vs wildtype: Normal
S. cerevisiae PAB115, ATG29 deletion
  96 Well Screen, AF susceptibility vs wildtype: Resistant (″Resistant″ or ″Sensitive″ indicate at least a 5-fold CFU difference from wildtype at the final time point)
S. cerevisiae PAB116, ISU1 deletion
  96 Well Screen, AF susceptibility vs wildtype: Resistant (″Resistant″ or ″Sensitive″ indicate at least a 5-fold CFU difference from wildtype at the final time point)
S. cerevisiae PAB117, CYC7 deletion
  96 Well Screen, AF susceptibility vs wildtype: Normal
S. cerevisiae PAB118, ARN1 deletion
  96 Well Screen, AF susceptibility vs wildtype: Normal
S. cerevisiae PAB119, CIT2 deletion
  96 Well Screen, AF susceptibility vs wildtype: Resistant (″Resistant″ or ″Sensitive″ indicate at least a 5-fold CFU difference from wildtype at the final time point)
S. cerevisiae PAB120, HSP30 deletion
  96 Well Screen, AF susceptibility vs wildtype: Normal
S. cerevisiae PAB121, SDH1 deletion
  96 Well Screen, AF susceptibility vs wildtype: Normal
S. cerevisiae PAB122, TPK3 deletion
  96 Well Screen, AF susceptibility vs wildtype: Resistant (″Resistant″ or ″Sensitive″ indicate at least a 5-fold CFU difference from wildtype at the final time point)
S. cerevisiae PAB123, ISU2 deletion
  96 Well Screen, AF susceptibility vs wildtype: Normal
S. cerevisiae PAB124, TPK1 deletion
  96 Well Screen, AF susceptibility vs wildtype: Normal
S. cerevisiae PAB125, MID2 deletion
  96 Well Screen, AF susceptibility vs wildtype: Normal
S. cerevisiae PAB126, SSK1 deletion
  96 Well Screen, AF susceptibility vs wildtype: Sensitive (″Resistant″ or ″Sensitive″ indicate at least a 5-fold CFU difference from wildtype at the final time point)
S. cerevisiae PAB127, HSP42 deletion
  96 Well Screen, AF susceptibility vs wildtype: Normal
S. cerevisiae PAB128, PIG1 deletion
  96 Well Screen, AF susceptibility vs wildtype: Normal
S. cerevisiae PAB130, UGA1 deletion
  96 Well Screen, AF susceptibility vs wildtype: Resistant (″Resistant″ or ″Sensitive″ indicate at least a 5-fold CFU difference from wildtype at the final time point)
S. cerevisiae PAB131, MTL1 deletion
  96 Well Screen, AF susceptibility vs wildtype: Normal
S. cerevisiae PAB132, CIT3 deletion
  96 Well Screen, AF susceptibility vs wildtype: Resistant (″Resistant″ or ″Sensitive″ indicate at least a 5-fold CFU difference from wildtype at the final time point)
S. cerevisiae PAB133, ZWF1 deletion
  96 Well Screen, AF susceptibility vs wildtype: Normal
S. cerevisiae PAB134, SUM1 deletion
  96 Well Screen, AF susceptibility vs wildtype: sensitive
S. cerevisiae PAB135, NDI1 deletion
  96 Well Screen, AF susceptibility vs wildtype: Resistant (″Resistant″ or ″Sensitive″ indicate at least a 5-fold CFU difference from wildtype at the final time point)
S. cerevisiae PAB136, PGM2 deletion
  96 Well Screen, AF susceptibility vs wildtype: Normal
S. cerevisiae PAB137, HFD1 deletion
  96 Well Screen, AF susceptibility vs wildtype: Normal
S. cerevisiae PAB138, PUF2 deletion
  96 Well Screen, AF susceptibility vs wildtype: Normal
S. cerevisiae PAB139, TDH1 deletion
  96 Well Screen, AF susceptibility vs wildtype: Sensitive (″Resistant″ or ″Sensitive″ indicate at least a 5-fold CFU difference from wildtype at the final time point)
S. cerevisiae PAB140, GUD1 deletion
  96 Well Screen, AF susceptibility vs wildtype: Sensitive (″Resistant″ or ″Sensitive″ indicate at least a 5-fold CFU difference from wildtype at the final time point)
S. cerevisiae PAB141, ATG15 deletion
  96 Well Screen, AF susceptibility vs wildtype: Sensitive (″Resistant″ or ″Sensitive″ indicate at least a 5-fold CFU difference from wildtype at the final time point)
S. cerevisiae PAB142, TDH2 deletion
  96 Well Screen, AF susceptibility vs wildtype: Sensitive (″Resistant″ or ″Sensitive″ indicate at least a 5-fold CFU difference from wildtype at the final time point)
S. cerevisiae PAB143, ATP1 deletion
  96 Well Screen, AF susceptibility vs wildtype: Sensitive (″Resistant″ or ″Sensitive″ indicate at least a 5-fold CFU difference from wildtype at the final time point)
S. cerevisiae PAB144, UGA2 deletion
  96 Well Screen, AF susceptibility vs wildtype: Sensitive (″Resistant″ or ″Sensitive″ indicate at least a 5-fold CFU difference from wildtype at the final time point)
S. cerevisiae PAB145, CIT1 deletion
  96 Well Screen, AF susceptibility vs wildtype: Resistant (″Resistant″ or ″Sensitive″ indicate at least a 5-fold CFU difference from wildtype at the final time point)
S. cerevisiae PAB146, SOLI deletion
  96 Well Screen, AF susceptibility vs wildtype: Normal
S. cerevisiae PAB147, PAN6 deletion
  96 Well Screen, AF susceptibility vs wildtype: Normal
S. cerevisiae PAB148, SOL4 deletion
  96 Well Screen, AF susceptibility vs wildtype: Normal
S. cerevisiae PAB149, YAK1 deletion
  96 Well Screen, AF susceptibility vs wildtype: Sensitive (″Resistant″ or ″Sensitive″ indicate at least a 5-fold CFU difference from wildtype at the final time point)
S. cerevisiae PAB150, PBS2 deletion
  96 Well Screen, AF susceptibility vs wildtype: Sensitive (″Resistant″ or ″Sensitive″ indicate at least a 5-fold CFU difference from wildtype at the final time point)
S. cerevisiae PAB152, GPD1 deletion
  96 Well Screen, AF susceptibility vs wildtype: Sensitive (″Resistant″ or ″Sensitive″ indicate at least a 5-fold CFU difference from wildtype at the final time point)
S. cerevisiae PAB153, SHO1 deletion
  96 Well Screen, AF susceptibility vs wildtype: Sensitive (″Resistant″ or ″Sensitive″ indicate at least a 5-fold CFU difference from wildtype at the final time point)
S. cerevisiae PAB154, FET3 deletion
  96 Well Screen, AF susceptibility vs wildtype: Sensitive (″Resistant″ or ″Sensitive″ indicate at least a 5-fold CFU difference from wildtype at the final time point)
S. cerevisiae PAB155, FBP1 deletion
  96 Well Screen, AF susceptibility vs wildtype: Sensitive (″Resistant″ or ″Sensitive″ indicate at least a 5-fold CFU difference from wildtype at the final time point)
S. cerevisiae PAB156, COX6 deletion
  96 Well Screen, AF susceptibility vs wildtype: Sensitive (″Resistant″ or ″Sensitive″ indicate at least a 5-fold CFU difference from wildtype at the final time point)
